These results are taken from US12139477B2, “Compounds, salts thereof and methods for treatment of diseases” (ACADIA PHARMACEUTICALS INC., priority 2017, dated 2024).

One series addresses T1, hERG channel (Homo sapiens, UniProt Q12809).
T1 construct: host or cells: CHO cells, stably transfected
In words: hERG assay, whole cell recordings in CHO cells (AVIVA). The following applies: CHO cells stably expressing hERG, pH 7.4. The series is classed as cell-based. On the procedure: The most common mechanism for these adverse events is the inhibition of one or more cardiac potassium channels, in particular hERG. This current is important for cardiac myocyte repolarization and is a common target for drugs that prolong the QT interval. Test articles in this study were therefore characterized to determine their ability to inhibit the hERG channel. Ion channel activity was measured at AVIVA Biosciences Corporation (San Diego, CA), using a stably transfected Chinese Hamster Ovary (CHO) cell line expressing the hERG mRNA.
Cells: AVIVA's CHO cell line, which stably expresses hERG channels, was used for the study. Cells were cultured in DMEM/F12 containing 10% FBS, 1% penicillin/streptomycin and 500 μg/ml G418. Before testing, cells were harvested using Accumax (Innovative Cell Technologies).
Solutions: For electrophysiological recordings, the following solutions were used: External Solution: 2 mM CaCl2); 2 mM MgCl2; 4 mM KCl; 150 mM NaCl; 10 mM Glucose; 10 mM HEPES; 305-315 mOsm; pH 7.4 (adjusted with 5M NaOH); Internal Solution: 140 mM KCl; 10 mM MgCl2; 6 mM EGTA; 5 mM HEPES-Na; 5 mM ATP-Mg; 295-305 mOsm; pH 7.25 (adjusted with 1M KOH).
Electrophysiology: Whole cell recordings were performed using PX 7000A (Axon Instruments) with AVIVA's SealChip™ technology. Cells were voltage clamped at a holding potential of −80 mV. The hERG current was then activated by a depolarizing step to −50 mV for 300 ms. This first step at −50 mV was used as a baseline for measuring peak amplitude of the tail current. Next, a voltage step to +20 mV was applied for 5 s to activate the channels. Finally, a step back to −50 mV for 5 s removed activation and the deactivating tail current was recorded.
Test Article Handling and Dilutions: All test articles were prepared from 10 mM DMSO stock solutions provided by Sponsor. Solutions were mixed by sonication for 20 min, followed by vigorous vortexing. Prior to testing, compounds were diluted to test concentrations in glass vials using External Solution. Dilutions were prepared no longer than 20 min prior to use.
Electrophysiology Procedures: After achieving whole cell configuration, cells were monitored for 90 s to assess stability and then washed with External Solution for 66 s. The voltage protocol previously described was then applied to the cells every 12 s throughout the procedure. Only stable cells with recording parameters above threshold (see Quality Control section) were allowed to enter the drug addition procedure. External solution containing 0.1% DMSO (vehicle) was applied to the cells to establish a baseline. […] Test article solutions were added to cells in 4 separate additions. Cells were kept in test solution until effect of the test article reached steady state, to a maximum of 12 min. Next, 1 μM cisapride (positive control) was added. Finally, washout with External Solution was performed until the recovery current reached steady state.
Data Analysis: Data analysis was performed using DataXpress (Axon Instruments), Clampfit (Axon Instruments) and Origin (OriginLab Corporation) software.
Background: Block of hERG is tested as a sign of cardiac risk.

The target of a further series is 5HT2A (Homo sapiens, UniProt P28223). The series can be described thus: Receptor Selection and Amplification (R-SAT) functional assay. The series is classed as cell-based. Set-up: expressed in transfected cells; host or cells: NIH3T3 cells, pSI mammalian expression vector. To be noted: NIH3T3 cells; Ki from IC50 by Cheng and Prussoff; read-out: 5-HT2a (pKi) (R-SAT) (converted). The text has this:
Receptor Selection and Amplification (R-SAT) Assays. […] The IC50 determined in the RSAT assay was converted into a Ki value using the method of Cheng and Prussoff, Biochem Pharmacol., 1973 Dec. 1; 22(23):3099-108. pKi is the negative of the log(Ki).

Sequence of 5HT2A (P28223 whole entry): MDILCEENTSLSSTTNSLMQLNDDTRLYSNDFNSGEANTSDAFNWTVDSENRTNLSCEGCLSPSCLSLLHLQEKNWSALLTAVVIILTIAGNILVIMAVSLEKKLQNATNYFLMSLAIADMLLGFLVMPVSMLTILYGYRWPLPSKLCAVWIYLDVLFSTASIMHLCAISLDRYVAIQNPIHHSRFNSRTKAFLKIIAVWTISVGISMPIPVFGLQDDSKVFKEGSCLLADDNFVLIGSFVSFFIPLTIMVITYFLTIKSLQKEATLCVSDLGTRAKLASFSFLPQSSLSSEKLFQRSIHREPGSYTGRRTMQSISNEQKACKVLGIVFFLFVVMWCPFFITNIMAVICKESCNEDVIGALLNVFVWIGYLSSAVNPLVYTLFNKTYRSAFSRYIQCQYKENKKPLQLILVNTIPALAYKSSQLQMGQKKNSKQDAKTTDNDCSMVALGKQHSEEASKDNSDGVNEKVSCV
T1 sequence (Q12809 whole entry): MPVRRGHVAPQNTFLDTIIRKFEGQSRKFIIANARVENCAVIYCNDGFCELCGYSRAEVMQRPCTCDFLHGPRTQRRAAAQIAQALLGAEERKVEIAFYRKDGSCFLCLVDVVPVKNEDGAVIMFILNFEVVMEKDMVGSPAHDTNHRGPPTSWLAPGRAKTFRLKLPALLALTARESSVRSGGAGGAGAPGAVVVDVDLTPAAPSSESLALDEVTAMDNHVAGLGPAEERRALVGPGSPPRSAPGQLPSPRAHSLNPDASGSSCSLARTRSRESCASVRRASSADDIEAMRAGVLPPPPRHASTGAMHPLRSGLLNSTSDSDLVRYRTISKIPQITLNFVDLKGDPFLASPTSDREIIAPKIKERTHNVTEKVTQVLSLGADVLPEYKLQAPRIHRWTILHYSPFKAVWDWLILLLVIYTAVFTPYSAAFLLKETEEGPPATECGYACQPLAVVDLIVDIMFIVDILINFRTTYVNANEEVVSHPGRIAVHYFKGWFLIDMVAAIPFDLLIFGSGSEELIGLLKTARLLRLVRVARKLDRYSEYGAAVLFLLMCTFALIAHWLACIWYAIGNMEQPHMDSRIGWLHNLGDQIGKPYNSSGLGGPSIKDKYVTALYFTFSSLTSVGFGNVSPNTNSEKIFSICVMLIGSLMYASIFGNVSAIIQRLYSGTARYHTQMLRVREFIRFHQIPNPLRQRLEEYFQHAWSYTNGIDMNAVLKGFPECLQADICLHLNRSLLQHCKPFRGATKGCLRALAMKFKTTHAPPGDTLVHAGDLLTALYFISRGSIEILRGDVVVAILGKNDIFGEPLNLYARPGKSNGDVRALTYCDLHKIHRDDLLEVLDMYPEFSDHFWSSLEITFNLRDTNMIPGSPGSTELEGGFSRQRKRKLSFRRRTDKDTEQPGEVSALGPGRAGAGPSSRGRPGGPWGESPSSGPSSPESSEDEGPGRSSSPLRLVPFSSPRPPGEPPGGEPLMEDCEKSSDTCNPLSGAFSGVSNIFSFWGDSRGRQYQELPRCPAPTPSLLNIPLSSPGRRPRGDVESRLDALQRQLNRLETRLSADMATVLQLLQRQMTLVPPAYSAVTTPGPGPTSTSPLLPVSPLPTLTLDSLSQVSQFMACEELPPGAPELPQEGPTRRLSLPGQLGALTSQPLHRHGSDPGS

For the compound `CN1CCC(N(Cc2ccc(F)cc2F)C(=O)NCc2ccc3c(c2)CCO3)CC1` [Example 10, 1-[(2,4-difluorophenyl)methyl]-3-[(2,3-dihydro-1-benzofuran-5-yl)methyl]-1-(1-methylpiperidin-4-yl)urea], the inhibition (commonly the percentage by which the read-out fell short of the control) at 1 µM at hERG channel was found to be 10%. On 5HT2A, the Ki was 1 nM.
The compound `CN1CCC(N(Cc2ccc(F)cc2F)C(=O)NCc2ccc3c(c2)COC3)CC1` [Example 95, 1-[(2,4-difluorophenyl)methyl]-3-[(1,3-dihydro-2-benzofuran-5-yl)methyl]-1-(1-methylpiperidin-4-yl)urea; Trifluoroacetic Acid] returned an inhibition at 1 µM against hERG channel of 8%. Further, on 5HT2A, the Ki is 50.1 nM.
In turn, `COc1cc(CNC(=O)N(Cc2ccc(F)cc2F)C2CCN(C)CC2)ccc1Cl` [Example 98, 3-[(4-chloro-3-methoxyphenyl)methyl]-1-[(2,4-difluorophenyl)methyl]-1-(1-methylpiperidin-4-yl)urea; Trifluoroacetic Acid] showed an inhibition at 1 µM against hERG channel of 62%. In addition, the Ki at 5HT2A was 3.16 nM.
`C#CCOc1ccc(CNC(=O)N(Cc2ccc(F)cc2F)C2CCN(C)CC2)cc1` [Example 148, 1-[(2,4-difluorophenyl)methyl]-1-(1-methylpiperidin-4-yl)-3-{[4-(prop-2-yn-1-yloxy)phenyl]methyl}urea; Trifluoroacetic Acid] came in with an inhibition at 1 µM at hERG channel of 33%. The Ki at 5HT2A was 2 nM.
`CC(C)COc1ccc(CNC(=O)N(Cc2ccc(F)cc2)C2CCN(C)CC2)cc1F` [Example 6, 3-{[3-fluoro-4-(2-methylpropoxy)phenyl]methyl}-1-[(4-fluorophenyl)methyl]-1-(1-methylpiperidin-4-yl)urea]: at hERG channel, the inhibition at 1 µM stood at 70%. Further, at 5HT2A, the Ki is 2 nM.
For `C=CCOc1ccc(CNC(=O)N(Cc2ccc(F)cc2F)C2CCN(C)CC2)cc1` [Example 19, 3-(4-(allyloxy)benzyl)-1-(2,4-difluorobenzyl)-1-(1-methylpiperidin-4-yl)urea], in that order: 33% and 1.58 nM.
The compound `CC(C)COc1ccc(CNC(=O)N(Cc2ccc(F)cc2)C2CCN(C)CC2)c(O)c1` [Example 14, 1-[(4-fluorophenyl)methyl]-3-{[2-hydroxy-4-(2-methylpropoxy)phenyl]methyl}-1-(1-methylpiperidin-4-yl)urea] showed an inhibition at 1 µM against hERG channel of 77%. On 5HT2A, the Ki is 1.58 nM.
On the same counts, the results for `CN1CCC(N(Cc2ccc(F)cc2F)C(=O)NCc2ccc(OCC(F)F)cc2)CC1` [Example 154, 3-{[4-(2,2-difluoroethoxy)phenyl]methyl}-1-[(2,4-difluorophenyl)methyl]-1-(1-methylpiperidin-4-yl)urea; Trifluoroacetic Acid] are 23% and 1.26 nM.
On the same counts, the results for `CC(C)Oc1ccc(CNC(=O)N(Cc2ccc(F)cc2Cl)C2CCN(C)CC2)cc1` [Example 61] are 23% and 15.8 nM.
For `CC(C)Oc1ccc(CNC(=O)N(Cc2ccc(Cl)cc2F)C2CCN(C)CC2)cc1` [Example 137, 1-[(4-chloro-2-fluorophenyl)methyl]-1-(1-methylpiperidin-4-yl)-3-{[4-(propan-2-yloxy)phenyl]methyl}urea; Trifluoroacetic Acid], in that order: 37% and 3.98 nM.
At hERG channel, `CN1CCC(N(Cc2ccc(F)cc2F)C(=O)NCc2ccc(OC(CF)CF)cc2)CC1` [Example 153, 3-[(2,4-difluorophenyl)methyl]-1-({4-[(1,3-difluoropropan-2-yl)oxy]phenyl}methyl)-3-(1-methylpiperidin-4-yl)urea; Trifluoroacetic Acid] yielded an inhibition at 1 µM of 29%. In addition, the Ki at 5HT2A is 1.58 nM.
For `CN1CCC(N(Cc2ccc(F)cc2F)C(=O)NCc2ccc3c(c2)CC(C)(C)O3)CC1` [Example 8, 1-[(2,4-difluorophenyl)methyl]-3-[(2,2-dimethyl-2,3-dihydro-1-benzofuran-5-yl)methyl]-1-(1-methylpiperidin-4-yl)urea], in that order: 22% and 0.794 nM.
Compound `Cc1noc2ccc(CNC(=O)N(Cc3ccc(F)cc3F)C3CCN(C)CC3)cc12` [Example 28] showed an inhibition at 1 µM on hERG channel of 32%. Besides, at 5HT2A, the Ki is 3.98 nM.
For `CC(C)COc1ccc(CNC(=O)N(Cc2ccc(F)cc2F)C2CCNCC2)cc1` [Example 4, 1-[(2,4-difluorophenyl)methyl]-3-{[4-(2-methylpropoxy)phenyl]methyl}-1-(piperidin-4-yl)urea], 1 µM produced 11% inhibition at hERG channel. Further, at 5HT2A, the Ki is 2.51 nM.
For `CC(C)COc1ccc(CNC(=O)N(Cc2ccc(Cl)cc2F)C2CCN(C)CC2)cc1` [Example 139, 1-[(4-chloro-2-fluorophenyl)methyl]-1-(1-methylpiperidin-4-yl)-3-{[4-(2-methylpropoxy)phenyl]methyl}urea; Trifluoroacetic Acid], the inhibition at 1 µM against hERG channel was found to be 35%. The Ki on 5HT2A is 3.98 nM.
`CC(C)COc1ccc(CNC(=O)N(Cc2ccc(F)cc2)C2CCN(C)CC2)c(F)c1` [Example 7, 3-{[2-fluoro-4-(2-methylpropoxy)phenyl]methyl}-1-[(4-fluorophenyl)methyl]-1-(1-methylpiperidin-4-yl)urea] registered an inhibition at 1 µM on hERG channel of 87%. For the same compound, the Ki at 5HT2A is 2 nM.
For the compound `CN1CCC(N(Cc2ccc(F)cc2F)C(=O)NCc2ccc(OCCF)cc2)CC1` [Example 15, 1-[(2,4-difluorophenyl)methyl]-3-{[4-(2-fluoroethoxy)phenyl]methyl}-1-(1-methylpiperidin-4-yl)urea], the inhibition at 1 µM against hERG channel was determined as 19%. In addition, the Ki at 5HT2A was 3.16 nM.
With `CCCOc1ccc(CNC(=O)N(Cc2ccc(F)cc2F)C2CCNCC2)cc1` [Example 76, 1-[(2,4-difluorophenyl)methyl]-1-(piperidin-4-yl)-3-[(4-propoxyphenyl)methyl]urea; Trifluoroacetic Acid], the inhibition at 1 µM at hERG channel is 12%. Moreover, the Ki on 5HT2A is 3.98 nM.
On hERG channel, `CN1CCC(N(Cc2ccc(F)cc2F)C(=O)NCc2ccc(OCC3CC3)cc2)CC1` [Example 141, 3-{[4-(cyclopropylmethoxy)phenyl]methyl}-1-[(2,4-difluorophenyl)methyl]-1-(1-methylpiperidin-4-yl)urea] registered an inhibition at 1 µM of 42%. Further, the Ki on 5HT2A is 0.631 nM.
For `CC1(C)Cc2cc(CNC(=O)N(Cc3ccc(F)cc3F)C3CCNCC3)ccc2O1` [Example 158, 1-[(2,4-difluorophenyl)methyl]-3-[(2,2-dimethyl-2,3-dihydro-1-benzofuran-5-yl)methyl]-1-(piperidin-4-yl)urea; Trifluoroacetic Acid], in that order: 8% and 0.794 nM.
Turning to `CN1CCC(N(Cc2ccc(F)cc2F)C(=O)NCc2ccc3c(c2)C(C)(C)CO3)CC1` [Example 9, 1-[(2,4-difluorophenyl)methyl]-3-[(3,3-dimethyl-2,3-dihydro-1-benzofuran-5-yl)methyl]-1-(1-methylpiperidin-4-yl)urea], the inhibition at 1 µM on hERG channel came to 63%. Further, the Ki on 5HT2A is 7.94 nM.
With `CC(C)Oc1ccc(CNC(=O)N(Cc2ccc(F)cc2F)C2CCNCC2)cc1` [Example 142, 1-[(2,4-difluorophenyl)methyl]-1-(piperidin-4-yl)-3-{[4-(propan-2-yloxy)phenyl]methyl}urea], the inhibition at 1 µM against hERG channel amounted to 8%. The Ki at 5HT2A was 1 nM.
For `CN1CCC(N(Cc2ccc(F)cc2F)C(=O)NCc2ccc(OCCCF)cc2)CC1` [Example 151, 3-[(2,4-difluorophenyl)methyl]-1-{[4-(3-fluoropropoxy)phenyl]methyl}-3-(1-methylpiperidin-4-yl)urea; Trifluoroacetic Acid], testing at 1 µM on hERG channel gave an inhibition of 16%. Besides, the Ki at 5HT2A is 2 nM.
